Test results: US8148391B2 (Cephalon, Inc., priority 2006, dated 2012)
Like-named read-outs stand apart in the source and are kept apart here. Blank lines part the entries; values can stand above or below the compound they belong to.

Legend:
[1] = target: T1, c-Met (cytoplasmic domain) (Homo sapiens, UniProt P08581); experiment: c-Met Kinase Assay (same methods as for ALK, with modifications); format: biochemical
T1 construct: 10 ng/mL c-Met (cytoplasmic domain, Invitrogen Corporation #PV3143); purchased Invitrogen Corporation PV3143
Procedure, shortened: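 Wells were coated with 10 μg/mL phospholipase C-γ substrate in TBS, and reactions were started with 10 ng/mL c-Met cytoplasmic domain and run at 37° C for 15 minutes. Phosphorylated product was detected with Eu-N1-labeled PT66 antibody. IC50 values came from sigmoidal variable-slope fits of percent inhibition versus log compound concentration.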

[2] = target: T2, baculovirus-expressed ALK (Homo sapiens, UniProt Q9UM73); experiment: ALK Kinase Assay (ELISA-type, time-resolved fluorescence); format: biochemical
T2 construct: host or cells: baculovirus expression system
Procedure, shortened: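 Substrate coating: phospholipase C-γ, 10 μg/mL in TBS. Kinase step: 30 ng/ml ALK, 15 min, 37° C. Detection and analysis: Eu-N1 PT66 antibody, with IC50 fitted as a sigmoidal variable-slope dose-response curve.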

[3] = 1 μM ATP (Km level), 10 ng/mL c-Met, read-out: cMet Activity (c-Met kinase inhibition, IC50 class)
[4] = 1 μM ATP (Km level), 30 ng/ml ALK, 37° C., 15 minutes, read-out: ALK Activity (ALK kinase inhibition, IC50 class)
[5] = c-Met kinase inhibition, 1 μM ATP, read-out: cMet Activity
[6] = ALK kinase inhibition, 1 μM ATP, read-out: ALK Activity
[7] = 1 μM ATP (Km level), read-out: cMet Activity (c-Met Kinase Inhibition, IC50)
[8] = 1 μM ATP (Km level), read-out: ALK Activity (ALK Kinase Inhibition, IC50)
[9] = c-Met kinase inhibition, 1 μM ATP (Km level), read-out: cMet Activity
[10] = ALK kinase inhibition, 1 μM ATP (Km level), read-out: ALK Activity

T2 sequence (Q9UM73 19-1620): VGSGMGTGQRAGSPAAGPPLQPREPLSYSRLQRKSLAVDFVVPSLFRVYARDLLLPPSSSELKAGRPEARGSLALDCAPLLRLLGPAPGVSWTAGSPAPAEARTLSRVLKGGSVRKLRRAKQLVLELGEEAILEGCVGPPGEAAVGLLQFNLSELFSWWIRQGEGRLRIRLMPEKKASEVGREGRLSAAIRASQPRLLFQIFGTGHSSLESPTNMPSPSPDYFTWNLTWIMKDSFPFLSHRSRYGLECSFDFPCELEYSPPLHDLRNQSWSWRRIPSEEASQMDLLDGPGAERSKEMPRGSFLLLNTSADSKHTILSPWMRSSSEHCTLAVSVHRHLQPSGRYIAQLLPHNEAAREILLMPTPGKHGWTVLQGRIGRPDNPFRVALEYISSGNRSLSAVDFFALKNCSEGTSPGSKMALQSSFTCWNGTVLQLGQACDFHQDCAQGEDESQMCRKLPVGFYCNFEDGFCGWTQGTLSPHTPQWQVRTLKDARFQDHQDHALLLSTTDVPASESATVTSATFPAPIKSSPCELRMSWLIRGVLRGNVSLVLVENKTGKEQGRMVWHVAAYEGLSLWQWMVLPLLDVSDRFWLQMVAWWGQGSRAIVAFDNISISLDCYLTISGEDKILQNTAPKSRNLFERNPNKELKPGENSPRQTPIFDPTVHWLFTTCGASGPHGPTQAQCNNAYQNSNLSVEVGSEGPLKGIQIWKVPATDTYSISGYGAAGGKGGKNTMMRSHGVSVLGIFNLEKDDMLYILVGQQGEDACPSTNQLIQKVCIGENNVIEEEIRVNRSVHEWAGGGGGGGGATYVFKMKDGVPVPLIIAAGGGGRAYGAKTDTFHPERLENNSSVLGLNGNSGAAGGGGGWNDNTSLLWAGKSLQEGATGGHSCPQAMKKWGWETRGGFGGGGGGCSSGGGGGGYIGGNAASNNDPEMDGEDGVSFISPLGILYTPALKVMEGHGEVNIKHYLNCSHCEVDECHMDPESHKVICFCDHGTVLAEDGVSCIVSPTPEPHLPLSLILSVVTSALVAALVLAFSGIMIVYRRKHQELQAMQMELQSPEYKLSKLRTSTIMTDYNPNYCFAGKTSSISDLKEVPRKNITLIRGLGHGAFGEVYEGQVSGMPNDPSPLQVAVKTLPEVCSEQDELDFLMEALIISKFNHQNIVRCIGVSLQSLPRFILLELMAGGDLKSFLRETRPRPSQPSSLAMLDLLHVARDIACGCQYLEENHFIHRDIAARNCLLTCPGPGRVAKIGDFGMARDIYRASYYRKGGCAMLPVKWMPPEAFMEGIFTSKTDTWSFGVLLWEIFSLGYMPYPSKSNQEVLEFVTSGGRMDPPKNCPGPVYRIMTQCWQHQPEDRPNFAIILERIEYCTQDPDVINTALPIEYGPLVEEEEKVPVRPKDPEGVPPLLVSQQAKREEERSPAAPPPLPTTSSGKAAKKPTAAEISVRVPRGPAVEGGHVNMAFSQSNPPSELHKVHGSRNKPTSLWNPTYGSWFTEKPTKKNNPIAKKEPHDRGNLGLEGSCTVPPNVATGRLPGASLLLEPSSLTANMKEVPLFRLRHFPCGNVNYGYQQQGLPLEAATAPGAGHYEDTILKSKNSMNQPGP
T1 sequence (P08581 956-1390 limits assumed): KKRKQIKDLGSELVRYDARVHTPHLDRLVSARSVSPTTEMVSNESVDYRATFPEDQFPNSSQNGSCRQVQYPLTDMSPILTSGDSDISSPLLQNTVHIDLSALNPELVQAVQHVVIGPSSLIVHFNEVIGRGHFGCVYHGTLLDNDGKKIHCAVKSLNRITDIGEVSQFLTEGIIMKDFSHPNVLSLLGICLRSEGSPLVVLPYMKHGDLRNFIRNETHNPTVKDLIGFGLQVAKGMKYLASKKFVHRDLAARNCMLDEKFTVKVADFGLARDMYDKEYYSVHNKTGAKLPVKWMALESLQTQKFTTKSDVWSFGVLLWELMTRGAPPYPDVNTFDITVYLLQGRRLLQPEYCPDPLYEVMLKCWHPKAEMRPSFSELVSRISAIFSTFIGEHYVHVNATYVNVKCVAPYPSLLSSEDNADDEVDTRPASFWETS

SMILES: C=CCOc1cc(N(C)C)cc(F)c1Nc1nc(Nc2ccc3c(c2)CCOC(=O)N3C)ncc1Cl [Example 1709, 2-[4-(2-Allyloxy-4-dimethylamino-6-fluoro-phenylamino)-5-chloro-pyrimidin-2-ylamino]-5-methyl-8,9-dihydro-5H-7-oxa-5-aza-benzocyclohepten-6-one]
IC50 [1, 5]: 100 to 1000 nM
IC50 [2, 6]: < 100 nM

SMILES: COc1c(Nc2ncc(Cl)c(Nc3ccccc3S(=O)(=O)N3CCC(O)C3)n2)ccc2c1CCC(NCCO)CC2 (stereo not shown) [Example 703, 1-(2-{5-Chloro-2-[7-(2-hydroxy-ethylamino)-1-methoxy-6,7,8,9-tetrahydro-5H-benzocyclohepten-2-ylamino]-pyrimidin-4-ylamino}-benzenesulfonyl)-pyrrolidin-3-ol]
IC50 [1, 7]: 100 to 1000 nM
IC50 [2, 8]: < 100 nM

SMILES: CS(=O)(=O)N[C@@H]1CCCC[C@H]1Nc1nc(Nc2ccc3c(c2)C2CCC3CN(S(C)(=O)=O)C2)ncc1Cl (stereo partly drawn) [Example 294, N-{(1R,2R)-2-[5-Chloro-2-(10-methanesulfonyl-10-aza-tricyclo[6.3.2.0*2,7*]trideca-2,4,6-trien-4-ylamino)-pyrimidin-4-ylamino]-cyclohexyl}-methanesulfonamide]
IC50 [1, 9]: 100 to 1000 nM
IC50 [2, 10]: < 100 nM

SMILES: COc1cc2c(cc1Nc1ncc(Cl)c(N[C@H]3[C@@H](C(N)=O)[C@@H]4C=C[C@H]3C4)n1)C(C)(C)CCC(=O)N2C [Example 1313, (1S,2S,3R,4R)-3-[5-Chloro-2-(8-methoxy-1,5,5-trimethyl-2-oxo-2,3,4,5-tetrahydro-1H-benzo[b]azepin-7-ylamino)-pyrimidin-4-ylamino]-bicyclo[2.2.1]hept-5-ene-2-carboxylic acid amide]
IC50 [1, 3]: > 10000 nM
IC50 [2, 4]: < 100 nM

SMILES: CC(C)S(=O)(=O)c1cccc(F)c1Nc1nc(Nc2ccc3c(c2)C(C)(C)CCC(=O)N3)ncc1Cl [Example 1254, 7-{5-Chloro-4-[2-fluoro-6-(propane-2-sulfonyl)-phenylamino]-pyrimidin-2-ylamino}-5,5-dimethyl-1,3,4,5-tetrahydro-1-benzazepin-2-one]
IC50 [1, 3]: 1000 to 10000 nM
IC50 [2, 4]: < 100 nM

SMILES: COc1cc2c(cc1Nc1ncc(Cl)c(Nc3ccc(N(C)C)cc3S(=O)(=O)C(C)C)n1)CCN(CC(=O)N(C)C)CC2 [Example 1187, 2-(7-{5-Chloro-4-[4-dimethylamino-2-(propane-2-sulfonyl)-phenylamino]-pyrimidin-2-ylamino}-8-methoxy-1,2,4,5-tetrahydro-benzo[d]azepin-3-yl)-N,N-dimethyl-acetamide]
IC50 [1, 3]: > 10000 nM
IC50 [2, 4]: < 100 nM

SMILES: CNS(=O)(=O)c1ccccc1Nc1nc(Nc2ccc3c(c2)C2CCC3CN(C(C)C)C2)ncc1Cl (stereo not shown) [Example 274, 2-[5-Chloro-2-(10-isopropyl-10-aza-tricyclo[6.3.2.0*2,7*]trideca-2,4,6-trien-4-ylamino)-pyrimidin-4-ylamino]-N-methyl-benzenesulfonamide]
IC50 [1, 9]: < 100 nM
IC50 [2, 10]: < 100 nM

SMILES: CNC(=O)c1cc(N(C)C)ccc1Nc1nc(Nc2cc3c(cc2OC)CCN(CC(=O)N(C)C)CC3)ncc1Cl [Example 1185, 2-[5-Chloro-2-(3-dimethylcarbamoylmethyl-8-methoxy-2,3,4,5-tetrahydro-1H-benzo[d]azepin-7-ylamino)-pyrimidin-4-ylamino]-5-dimethylamino-N-methyl-benzamide]
IC50 [1, 3]: > 10000 nM
IC50 [2, 4]: < 100 nM

SMILES: CNC(=O)c1cc(-c2cnn(C)c2)cc(F)c1Nc1nc(Nc2ccc3c(c2)NC(=O)CCC3)ncc1Cl [Example 1422, 2-[5-Chloro-2-(2-oxo-2,3,4,5-tetrahydro-1H-benzo[b]azepin-8-ylamino)-pyrimidin-4-ylamino]-3-fluoro-N-methyl-5-(1-methyl-1H-pyrazol-4-yl)-benzamide]
IC50 [1, 3]: < 100 nM
IC50 [2, 4]: 100 to 1000 nM

SMILES: COc1cc2c(cc1Nc1ncc(Cl)c(N[C@H]3[C@@H](C(N)=O)[C@@H]4C=C[C@H]3C4)n1)CCN(Cc1ncco1)CC2 [Example 1179, (1S,2S,3R,4R)-3-[5-Chloro-2-(8-methoxy-3-oxazol-2-ylmethyl-2,3,4,5-tetrahydro-1H-benzo[d]azepin-7-ylamino)-pyrimidin-4-ylamino]-bicyclo[2.2.1]hept-5-ene-2-carboxylic acid amide]
IC50 [1, 3]: > 10000 nM
IC50 [2, 4]: < 100 nM

SMILES: COc1ccc(Nc2ncc(Cl)c(N[C@H]3[C@@H](C(N)=O)[C@@H]4C=C[C@H]3C4)n2)c2c1CCCC(N1CCOCC1)C2 (single isomer, unassigned) [Example 943]
IC50 [1, 7]: > 10000 nM
IC50 [2, 8]: 1000 to 10000 nM

SMILES: CCN1C(=O)C(NC(=O)C(F)(F)F)CCc2c1ccc(Nc1ncc(Cl)c(N[C@H]3[C@@H](C(N)=O)[C@@H]4C=C[C@H]3C4)n1)c2OC (stereo partly drawn) [Example 1330, (1S,2S,3R,4R)-3-{5-Chloro-2-[1-ethyl-6-methoxy-2-oxo-3-(2,2,2-trifluoro-acetylamino)-2,3,4,5-tetrahydro-1H-benzo[b]azepin-7-ylamino]-pyrimidin-4-ylamino}-bicyclo[2.2.1]hept-5-ene-2-carboxylic acid amide]
IC50 [1, 3]: > 10000 nM
IC50 [2, 4]: < 100 nM

Second part, the compound after the results:

IC50 [1, 3]: 1000 to 10000 nM
IC50 [2, 4]: 100 to 1000 nM
SMILES: COCCN1CCc2ccc(Nc3ncc(Cl)c(Nc4ccccc4C(=O)NCCCCN(C)C)n3)cc2CC1 [Example 1400, {5-Chloro-2-[3-(2-methoxy-ethyl)-2,3,4,5-tetrahydro-1H-benzo[d]azepin-7-ylamino]-pyrimidin-4-ylamino}-N-(4-dimethylamino-butyl)-benzamide]

IC50 [1, 7]: > 10000 nM
IC50 [2, 8]: < 100 nM
SMILES: COc1ccc(Nc2nc(Nc3cc4c(cc3OC)CCN(CC(=O)N(C)C)CC4)ncc2Cl)c(N(C)C)c1 [Example 826, 2-{7-[5-Chloro-4-(2-dimethylamino-4-methoxy-phenylamino)-pyrimidin-2-ylamino]-8-methoxy-1,2,4,5-tetrahydro-benzo[d]azepin-3-yl}-N,N-dimethyl-acetamide]

IC50 [1, 9]: < 100 nM
IC50 [2, 10]: < 100 nM
SMILES: CNC(=O)c1ccccc1Nc1nc(Nc2ccc3c(c2)N(C)CCN(S(C)(=O)=O)C3)ncc1Cl [Example 483, 2-[5-Chloro-2-(4-methanesulfonyl-1-methyl-2,3,4,5-tetrahydro-1H-benzo[e][1,4]diazepin-8-ylamino)-pyrimidin-4-ylamino]-N-methyl-benzamide]

IC50 [1, 9]: 100 to 1000 nM
IC50 [2, 10]: < 100 nM
SMILES: CNC(=O)[C@@H]1CCC[C@@H]1Nc1nc(Nc2ccc3c(c2)CCN(CCOC)CC3)ncc1Cl (relative stereo) [Example 372, cis-2-{5-Chloro-2-[3-(2-methoxy-ethyl)-2,3,4,5-tetrahydro-1H-benzo[d]azepin-7-ylamino]-pyrimidin-4-ylamino}-cyclopentanecarboxylic acid methylamide]

IC50 [1, 7]: > 10000 nM
IC50 [2, 8]: < 100 nM
SMILES: COc1cc2c(cc1Nc1ncc(Cl)c(Nc3ccc(N4CCN(C)CC4)cc3OC)n1)CCN(CCS(C)(=O)=O)CC2 [Example 771, 5-Chloro-N*2*-[3-(2-methanesulfonyl-ethyl)-8-methoxy-2,3,4,5-tetrahydro-1H-benzo[d]azepin-7-yl]-N*4*-[2-methoxy-4-(4-methyl-piperazin-1-yl)-phenyl]-pyrimidine-2,4-diamine]

IC50 [1, 7]: 100 to 1000 nM
IC50 [2, 8]: < 100 nM
SMILES: COCCN1CCc2ccc(Nc3ncc(Cl)c(Nc4ccccc4-c4nccs4)n3)cc2CC1 [Example 979, 5-Chloro-N*2*-[3-(2-methoxy-ethyl)-2,3,4,5-tetrahydro-1H-benzo[d]azepin-7-yl]-N*4*-(2-thiazol-2-yl-phenyl)-pyrimidine-2,4-diamine]

IC50 [1, 3]: 100 to 1000 nM
IC50 [2, 4]: < 100 nM
SMILES: CC(C)S(=O)(=O)c1ccccc1Nc1nc(Nc2ccc3c(c2)CCC(N2CCOCC2)CC3)ncc1Cl (stereo not shown) [Example 1036, 5-Chloro-N*2*-(7-morpholin-4-yl-6,7,8,9-tetrahydro-5H-benzocyclohepten-2-yl)-N*4*-[2-(propane-2-sulfonyl)-phenyl]-pyrimidine-2,4-diamine]

IC50 [1, 3]: > 10000 nM
IC50 [2, 4]: < 100 nM
SMILES: COc1cc2c(cc1Nc1ncc(Cl)c(Nc3ccccc3-n3cccn3)n1)CCN(CC(=O)N(C)C)CC2 [Example 1320, 2-{7-[5-Chloro-4-(2-pyrazol-1-yl-phenylamino)-pyrimidin-2-ylamino]-8-methoxy-1,2,4,5-tetrahydro-benzo[d]azepin-3-yl}-N,N-dimethyl-acetamide]

IC50 [1, 5]: 100 to 1000 nM
IC50 [2, 6]: < 100 nM
SMILES: CN1Cc2cc(Nc3ncc(Cl)c(Nc4cccc5c4OC(F)(F)O5)n3)ccc2CCC1=O [Example 1803, 8-[5-Chloro-4-(2,2-difluoro-benzo[1,3]dioxol-4-ylamino)-pyrimidin-2-ylamino]-2-methyl-1,2,4,5-tetrahydro-benzo[c]azepin-3-one]

IC50 [1, 3]: > 10000 nM
IC50 [2, 4]: < 100 nM
SMILES: COc1cc2c(cc1Nc1ncc(Cl)c(Nc3ccccc3OCC#N)n1)CCN(CC(=O)N(C)C)CC2 [Example 1147, 2-{7-[5-Chloro-4-(2-cyanomethoxy-phenylamino)-pyrimidin-2-ylamino]-8-methoxy-1,2,4,5-tetrahydro-benzo[d]azepin-3-yl}-N,N-dimethyl-acetamide]

IC50 [1, 9]: < 100 nM
IC50 [2, 10]: < 100 nM
SMILES: CNC(=O)c1ccccc1Nc1nc(Nc2ccc3c(c2)CCOCC3)ncc1Cl [Example 51, 2-[5-Chloro-2-(5,6,8,9-tetrahydro-7-oxa-benzocyclohepten-2-ylamino)-pyrimidin-4-ylamino]-N-methyl-benzamide]
